The source of these data is patent US20050090527A1, “Combination of H1, H3 and H4 receptor antagonists for treatment of allergic and non-allergic pulmonary inflammation, congestion and allergic rhinitis” (Schering Corporation, priority 2003, published 2005).

The target of assay [1] is T1, human histamine H4 receptor (SP9144) (Homo sapiens, UniProt Q9H3N8).
T1 construct: expressed in transfected cells; host or cells: HEK293
Put plainly: Competition binding versus [3H]-histamine on membranes of SP9144-transfected HEK293 cells. How it is done: Membrane preparation. Forty-eight hours after transfection with plasmid containing the sequence for SP9144, HEK293 cells were harvested from T150 flasks by incubating 5 minutes in 5 ml of 5 mM EDTA/Hanks' balanced salt solution followed by repeated pipeting. They were centrifuged 5 minutes at 1000×g. The EDTA/PBS was decanted and an equal volume of ice-cold 50 mM Tris-HCl, pH 7.5, was added and cells were broken up with a Polytron (PT10 tip, setting 5, 30 seconds). Nuclei and unbroken cells were sedimented at 1000×g for 10 minutes and then the supernatant was centrifuged at 50,000×g for 10 minutes. The supernatant was decanted, the pellet was resuspended by Polytron, a sample was taken for protein assay (bicinchoninic acid, Pierce; Rockford, Ill.), and the tissue was again centrifuged at 50,000×g. Pellets were stored frozen at −20° C.
Binding assay. […] Samples were filtered on GF/B filters and washed thrice with 2 ml of cold Tris buffer. Filters were dried in a microwave oven, impregnated with Meltilex wax scintillant, and counted at 45% efficiency.
Competition binding assays.
Curves were fit to the data with Prism (GraphPad Software) nonlinear least-squares curve-fitting program and Ki values were derived from IC50 values according to Cheng and Prusoff (Cheng, et al., (1973) Biochem. Pharm. 22:3099-3108).

In assay [2] the test system is LPS-induced inflammatory response in rat airways. The experiment in a line: BAL cells recovered from LPS-challenged rats (pulmonary inflammation). The assay is classed as in vivo. The following applies: for Cells (neutrophils or total cells) counted in BAL of LPS-challenged rats compared with rats treated with a blank: oral dosing five hours before LPS; for % Inhibition of neutrophilic cellular influx into BAL in response to LPS challenge / % Inhibition of total cellular influx into BAL in response to LPS challenge: 10 mg/kg orally five hours before intratracheal LPS. The protocol: Male Sprague-Dawley rats (250-300 g) were anesthetized by inhalation of isoflurane (flow rate 1 ml/min; supplemented with O2). Using a Penn-Centry microspray needle, 0.1 ml of a 100-μg/ml LPS solution in saline was injected into the trachea. Animals not challenged with the LPS solution received 0.1 ml of saline. Animals were placed on a heat pad until they recovered from anesthesia. Afterward, they were returned to their cages and allowed food and water ad libitum. All animals survived these manipulations and no additional interventions were required to ensure their survival. Animals fasted overnight were orally dosed with either the standard PD4 inhibitor and positive-control, SB207499 (c4-cyano-4-(3-cyclopentyloxy-4-methoxy-phenyl)-r-1-cyclohexanecarboxylic acid; Barnette, et al., (1998) J. Pharm. Exp. Ther. 284: 420-426), the compound of formula 17 or vehicle as a negative-control (0.4% methylcellulose) five hours before the LPS challenge.
At appropriate time points after intratracheal challenge with LPS, animals were surgically prepared with a tracheal cannula. Surgery was performed under anesthesia. The airways were flushed with 2×2 ml of 0.9% saline and the two washings pooled. Lavage fluid was centrifuged (350 g, 4° C., 7 minutes), supernatant aspirated, erythrocytes lysed, and pellet washed in phosphate-buffered saline containing 10% heat-inactivated fetal calf serum and 10 μg/ml DNase I. The cell suspension was centrifuged, supernatant aspirated, and pellet resuspended in the same buffer. Total cell counts were performed using a Nebauer hemacytometer. Differential cell counts were conducted on Cytospin-prepared slides stained with Fisher's Leukostat stain. At least 200 cells were assessed per slide and standard morphological criteria were used to define neutrophilic cells.
The total number of cells and the number of neutrophils in the broncheoalveolar lavage (BAL) recovered from rats treated with the compound of formula 17, SB207499 or a blank were counted and compared. Fewer cells (i.e., neutrophils or total cells) were counted in the BAL of LPS-challenged rats treated with the compound of formula 17 or with SB207499 than that of rats treated with a blank. […] The data from these experiments is set forth below in Tables 6 and 7.

Assay [3] deals with T2, human H4 (H4-HEK293 cells) (Homo sapiens, UniProt Q9H3N8).
T2 construct: expressed in transfected cells
T2 sequence (Q9H3N8 whole entry): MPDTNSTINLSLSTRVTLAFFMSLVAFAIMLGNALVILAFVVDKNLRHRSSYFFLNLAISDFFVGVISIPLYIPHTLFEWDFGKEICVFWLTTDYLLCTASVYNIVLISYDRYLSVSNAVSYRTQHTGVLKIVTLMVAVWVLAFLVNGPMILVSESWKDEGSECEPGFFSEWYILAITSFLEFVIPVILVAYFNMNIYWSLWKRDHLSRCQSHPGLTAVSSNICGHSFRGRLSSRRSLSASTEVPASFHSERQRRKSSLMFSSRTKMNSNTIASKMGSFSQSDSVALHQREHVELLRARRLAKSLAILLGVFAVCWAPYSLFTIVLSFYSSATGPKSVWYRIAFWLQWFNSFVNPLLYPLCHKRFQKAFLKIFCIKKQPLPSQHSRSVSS
The experiment in a line: Membrane binding assay, [3H]-histamine, for H4 binding. How it is done:
(§1) In the present example, the affinities of several compounds for the H1, H3 and H4 receptors was determined by a membrane binding assay.
(§2) Materials. Rat and guinea-pig brains were obtained frozen from Rockland Immunochemicals (Gilbertsville, Pa.). Cell lines expressing recombinant human receptors were generated by using standard transfection techniques. The following radioligands were obtained from Dupont NEN (Boston, Mass.): [^3H]-pyrilamine, 23 Ci/mmol, for H1 binding; [^3H]-N′-methylhistamine, 82 Ci/mmol, for H3 binding and [^3H]-histamine, 20 Ci/mmol, for H4 binding.
(§3) Methods. Recombinant cell lines (i.e., human H1-CHO cells, human H3-HEK293 and human H4-HEK293 cells) were cultured in Dulbecco's modified Eagle's medium/10% fetal bovine serum supplemented with 2 mM glutamine, penicillin (100 U/ml), and streptomycin (100 μg/ml) in a humidified 5% CO2 atmosphere at 37° C. Selection was maintained with 0.5 mg geneticin/ml. Cells were harvested for membrane preparation by aspirating media, replacing it with Hanks' balanced salt solution/5 mM EDTA, and incubating flasks for 10 minutes at 37° C. Cells were pelleted by centrifugation at 1000×g for ten minutes at 4° C.
(§4) Membrane preparation. Membranes were prepared by disrupting cells or tissue in at least ten volumes of ice-cold 50 mM Tris-HCl, pH 7.5 at 25° C., with a Polytron. homogenates were centrifuged ten minutes at 1000×g and the supernatants were then centrifuged for ten minutes at 50,000×g. Pellets from this centrifugation step were resuspended with a Polytron, a sample was taken for protein determination (BCA; Pierce; Rockford, Ill.), and the resuspension was again centrifuged at 50,000×g. Brain membranes were stored as pellets, cell membranes as suspensions of 1 mg protein/ml Tris buffer at −20° C.
(§5) Binding assays. […] Assay mixtures were incubated for 30 minutes at 30° C. in polypropylene, 96-well, deep-well plates then filtered through 0.3% polyethylenimine-soaked GF/B filters. These were washed three times with 1.2 ml of Tris buffer, dried in a microwave oven, impregnated with Meltilex wax scintillant and counted at 40% efficiency in a Betaplate scintillation counter (Wallac). IC50 values were determined by interpolation or by nonlinear, least-squares, curve-fitting with the Prism program (GraphPad Software). Ki values were determined in the manner of Cheng and Prusoff (Cheng, et al., (1973) Biochem. Pharm. 22:3099-3108).

The target in assay [4] is T3, human H1 (H1-CHO cells) (Homo sapiens, UniProt P35367).
T3 construct: expressed in transfected cells
T3 sequence (P35367 whole entry): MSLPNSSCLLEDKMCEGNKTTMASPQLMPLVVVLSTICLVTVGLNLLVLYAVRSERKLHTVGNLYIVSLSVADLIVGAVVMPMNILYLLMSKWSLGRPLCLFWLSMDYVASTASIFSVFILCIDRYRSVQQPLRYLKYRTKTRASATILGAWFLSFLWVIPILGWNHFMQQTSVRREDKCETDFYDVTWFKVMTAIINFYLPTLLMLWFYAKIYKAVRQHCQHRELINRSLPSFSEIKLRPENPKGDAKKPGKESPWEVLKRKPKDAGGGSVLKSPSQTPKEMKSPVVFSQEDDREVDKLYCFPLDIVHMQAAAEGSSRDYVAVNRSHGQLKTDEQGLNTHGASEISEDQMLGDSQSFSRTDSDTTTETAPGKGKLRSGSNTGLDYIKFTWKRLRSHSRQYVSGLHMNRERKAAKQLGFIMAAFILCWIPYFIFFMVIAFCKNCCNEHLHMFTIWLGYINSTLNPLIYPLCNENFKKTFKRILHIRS
The experiment in a line: Membrane binding assay, [3H]-pyrilamine, for H1 binding. The following applies: for H1 Ki, value given in %: concentration not given. How it is done:
as §1, §2, §3, §4, §5

In assay [5] the target is T4, human H3 (H3-HEK293 cells) (Homo sapiens, UniProt Q9Y5N1).
T4 construct: expressed in transfected cells
T4 sequence (Q9Y5N1 whole entry): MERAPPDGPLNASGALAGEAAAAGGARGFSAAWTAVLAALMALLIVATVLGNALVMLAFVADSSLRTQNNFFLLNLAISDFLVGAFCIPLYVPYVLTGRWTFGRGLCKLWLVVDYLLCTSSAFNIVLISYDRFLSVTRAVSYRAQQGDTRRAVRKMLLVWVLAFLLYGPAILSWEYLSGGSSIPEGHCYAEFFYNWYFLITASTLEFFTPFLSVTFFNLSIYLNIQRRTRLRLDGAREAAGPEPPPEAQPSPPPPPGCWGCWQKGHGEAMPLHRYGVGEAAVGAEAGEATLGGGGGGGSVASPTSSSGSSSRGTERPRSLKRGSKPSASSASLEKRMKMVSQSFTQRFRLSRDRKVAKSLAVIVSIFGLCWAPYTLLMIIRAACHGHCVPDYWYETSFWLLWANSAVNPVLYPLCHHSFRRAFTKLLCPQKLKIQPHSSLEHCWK
Put plainly: Membrane binding assay, [3H]-N-methylhistamine, for H3 binding. The settings on record: concentration not given. The protocol:
Materials. Rat and guinea-pig brains were obtained frozen from Rockland Immunochemicals (Gilbertsville, Pa.). Cell lines expressing recombinant human receptors were generated by using standard transfection techniques.
Methods. […] Selection was maintained with 0.5 mg geneticin/ml. Cells were harvested for membrane preparation by aspirating media, replacing it with Hanks' balanced salt solution/5 mM EDTA, and incubating flasks for 10 minutes at 37° C. Cells were pelleted by centrifugation at 1000×g for ten minutes at 4° C.
Membrane preparation. […] Pellets from this centrifugation step were resuspended with a Polytron, a sample was taken for protein determination (BCA; Pierce; Rockford, Ill.), and the resuspension was again centrifuged at 50,000×g. Brain membranes were stored as pellets, cell membranes as suspensions of 1 mg protein/ml Tris buffer at −20° C.
Binding assays. […] Assay mixtures were incubated for 30 minutes at 30° C. in polypropylene, 96-well, deep-well plates then filtered through 0.3% polyethylenimine-soaked GF/B filters. These were washed three times with 1.2 ml of Tris buffer, dried in a microwave oven, impregnated with Meltilex wax scintillant and counted at 40% efficiency in a Betaplate scintillation counter (Wallac). IC50 values were determined by interpolation or by nonlinear, least-squares, curve-fitting with the Prism program (GraphPad Software).

Where [6] appears, read: 18 nM [3H]-histamine, cells printed in μM.
Where [7] appears, read: membrane binding, [3H]-histamine, read-out: H4 Ki.

Where two headings read alike, the source gives them in different places. Where only a bound is given, the exact number is not on record here.

T1 sequence (Q9H3N8 whole entry): as the sequence (Q9H3N8 whole entry) above

Molecule `C[C@@H](N)Cc1c[nH]cn1` [(R)-α-methylhistamine] showed a Ki in assay [1] of 0.14 ± 0.01 µM.
In the case of `C[C@H](N)Cc1c[nH]cn1` [(S)-α-methylhistamine], the Ki in assay [1] is 3.4 ± 0.3 µM.
As for `CN(C)CCC(c1ccc(Cl)cc1)c1ccccn1` (stereo not shown) [Chlorpheniramine], the Ki in assay [1] (setting [6]) is above 10 µM.
Regarding `CN/C(=N/CCSCc1nc[nH]c1C)NC#N` [Cimetidine], in assay [1] (setting [6]), the Ki is above 10 µM.
For `NC(=NCc1ccc(Cl)cc1)SCCCc1cnc[nH]1` [Clobenpropit], the Ki in assay [1] turned out to be 0.0072 ± 0.0005 µM.
For `CN(C)CCCSC(=N)N` [Dimaprit], in assay [1] (read-out: Ki ± SEM versus [3H]histamine binding to SP9144-transfected HEK293 cells, 18 nM [3H]-histamine, 70 μg membrane protein, Ki from IC50 by Cheng and Prusoff), the Ki was determined as 0.38 ± 0.07 µM.
For `Nc1ncc(CN2CCC(F)(C(=O)N3CCC(n4c(-c5ccccn5)nc5cccnc54)CC3)CC2)cn1` [Formula 17], in assay [2], the “Cells (neutrophils or total cells) counted in BAL of LPS-challenged rats compared with rats treated with a blank” value was “Fewer cells”.
`NC(=NCc1ccc(Cl)cc1)SCCCc1cnc[nH]1` [Formula 18] came in with a Ki in assay [3] of 34 nM.
Turning to `O=C(c1cnc2ccccc2c1)N1CCC(Cc2c[nH]cn2)CC1` [Formula 19], the “H1 Ki, value given in %” value in assay [4] is 0%. Moreover, the Ki in assay [3] (setting [7]) amounted to 38 nM. In assay [2], the “% Inhibition of neutrophilic cellular influx into BAL in response to LPS challenge” value was determined as 71.6% and the “% Inhibition of total cellular influx into BAL in response to LPS challenge” value stood at 64.5%.
For `O=C(c1ccccn1)N1CCC(Cc2c[nH]cn2)CC1` [Formula 20], the Ki in assay [3] (setting [7]) is 38 nM.
On the same count and under the same terms, then `CC(C)(C)CCC#C[C@@H]1C[C@H]1c1c[nH]cn1` [Formula 21], with 90 nM; and `O=C(CCN1CCC(Cc2c[nH]cn2)CC1)Nc1cccc(Cl)c1` [Formula 22], with 92 nM; and `O=S(=O)(c1ccc(Cl)cc1)N1CCC(CCc2c[nH]cn2)C1` (stereo not shown) [Formula 23], with 205 nM.
For the molecule `c1nc(CC2CCN(CCCOc3ccc(CN4CCCCC4)cc3)CC2)c[nH]1` [Formula 24], the Ki in assay [3] (setting [7]) stood at 290 nM.
With `O=C(CCN1CCC(Cc2c[nH]cn2)CC1)NCCc1ccc(Cl)cc1` [Formula 25], the Ki in assay [3] (setting [7]) was 300 nM.
Consider `O=C(NCc1ccc(Cc2c[nH]cn2)cc1)Nc1cc(Cl)cc(Cl)c1` [Formula 26], for which the “H1 Ki, value given in %” value in assay [4] came out at 0%. Moreover, the Ki in assay [3] (setting [7]) came to 320 nM.
As for `CN1CCC(N(C)Cc2ccc(OCCCN3CCC(Cc4c[nH]cn4)CC3)cc2)CC1` [Formula 27], in assay [3] (setting [7]), the Ki was determined as 325 nM.
Take `Clc1ccc(C(=C2CCN(CCCCc3c[nH]cn3)CC2)c2ccccn2)cc1` [Formula 28]: the Ki in assay [3] (setting [7]) amounted to 390 nM.
On to `c1ccc2c(c1)C1CC(CNCCCCc3c[nH]cn3)C2c2ccccc21` (stereo not shown) [Formula 29], for which the Ki in assay [3] (setting [7]) came to 440 nM.
With `Clc1ccc(C(CCNCCCCc2c[nH]cn2)c2ccccn2)cc1` (stereo not shown) [Formula 30], the Ki in assay [3] (setting [7]) came out at 480 nM.
Still for that read-out and setting: to `Clc1ccc(C(=C2CCN(CCCCCc3c[nH]cn3)CC2)c2ccccn2)cc1` [Formula 31] belongs 770 nM.
Take `CC(C)(C)c1ccc(S(=O)(=O)NCCCCc2c[nH]cn2)cc1` [Formula 32]: in assay [4], the “H1 Ki, value given in %” value was 32%. The Ki in assay [3] (setting [7]) is 850 nM.
On to `C/C(=C\C(=O)Nc1ccc(Cl)cc1)c1ccc(Cc2c[nH]cn2)cc1` [Formula 33], for which the Ki in assay [3] (setting [7]) was 870 nM.
Turning to `O=C(NCCCCc1c[nH]cn1)C1(c2ccc(Cl)cc2)CCC1` [Formula 34], in assay [4], the “H1 Ki, value given in %” value is 48%. Besides, in assay [3] (setting [7]), the Ki was found to be 1100 nM.
Consider `O=C(/C=C/c1ccc(Cc2c[nH]cn2)cc1)NCCc1ccc(Cl)cc1` [Formula 35], for which the “H1 Ki, value given in %” value in assay [4] is recorded as 0%. In addition, the Ki in assay [3] (setting [7]) amounted to 1100 nM.
Regarding `CC(C)(C(=O)O)c1ccc(C(=O)CCCN2CCC(OC(c3ccccc3)c3ccccc3)CC2)cc1` [Formula 36], the “H3 Ki column, value given in %” value in assay [5] was 1%. The same molecule registered a Ki in assay [4] (membrane binding, [3H]-pyrilamine) of 15 nM. Besides, in assay [3] (concentration not given), the “H4 Ki column, value given in %” value is given as 2%.
Molecule `N=C(N)SCCc1cnc[nH]1` [Imetit] yielded a Ki in assay [1] of 0.0031 ± 0.0007 µM.
`CNCCc1c[nH]cn1` [N^α-methylhistamine]: the Ki in assay [1] was 0.063 ± 0.002 µM.
For `COc1ccc([C@]2(C#N)CC[C@@H](C(=O)O)CC2)cc1OC1CCCC1` [SB207499, c4-cyano-4-(3-cyclopentyloxy-4-methoxy-phenyl)-r-1-cyclohexanecarboxylic acid, reference compound], in assay [2], the “% Inhibition of neutrophilic cellular influx into BAL in response to LPS challenge” value was 68.7%, the “% Inhibition of total cellular influx into BAL in response to LPS challenge” value worked out at 61.2% and the “Cells (neutrophils or total cells) counted in BAL of LPS-challenged rats compared with rats treated with a blank” value is given as “Fewer cells”.
